This assay relates to nude mice, LX-1 lung xenograft intrarenal, tumor weight T/C. Put plainly: NCI In Vivo Anticancer Drug Screen. Data for tumor model Human Lung LX-1 Xenograft (intrarenal inoculation) in NU/NU Swiss (nude) mice. Particulars: endpoint: mean tumor weight change, higher = larger tumour. The method in brief:
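In vivo, transplantable tumor; compound vs vehicle arms; tumor size measured; value = T/C.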
(In general: A xenograft is tissue or cells of one species grown in another, often human tumour cells in immunodeficient mice.)

Where [1] appears, read: dose: 25.0 mg/kg/injection, schedule: Q01DX010 (sc), vehicle: Klucel (hydroxypropylcellulose) (HPC).
[2] abbreviates: dose: 50.0 mg/kg/injection, schedule: Q01DX010 (sc), vehicle: Klucel (hydroxypropylcellulose) (HPC).
Where [3] appears, read: dose: 100.0 mg/kg/injection, schedule: Q01DX010 (sc), vehicle: Klucel (hydroxypropylcellulose) (HPC).
[4] abbreviates: dose: 200.0 mg/kg/injection, schedule: Q01DX010 (sc), vehicle: Klucel (hydroxypropylcellulose) (HPC).
The mark [5] stands for this setting: dose: 300.0 mg/kg/injection, schedule: Q04DX003 (sc), vehicle: Klucel (hydroxypropylcellulose) (HPC).
[6] abbreviates: dose: 600.0 mg/kg/injection, schedule: Q04DX003 (sc), vehicle: Klucel (hydroxypropylcellulose) (HPC).
Where [7] appears, read: dose: 1200.0 mg/kg/injection, schedule: Q04DX003 (sc), vehicle: Klucel (hydroxypropylcellulose) (HPC).
Setting [8] is: dose: 150.0 mg/kg/injection, schedule: Q04DX003 (sc), vehicle: Klucel (hydroxypropylcellulose) (HPC).
Setting [9] is: dose: 12.5 mg/kg/injection, schedule: Q01DX010 (sc), vehicle: Klucel (hydroxypropylcellulose) (HPC).
Setting [10] is: dose: 300.0 mg/kg/injection, schedule: Q04DX003 (sc), vehicle: saline with Tween-80.
Where [11] appears, read: dose: 50.0 mg/kg/injection, schedule: Q01DX010 (sc), vehicle: suspension in saline.
Setting [12] is: dose: 100.0 mg/kg/injection, schedule: Q01DX010 (sc), vehicle: suspension in saline.
Setting [13] is: dose: 200.0 mg/kg/injection, schedule: Q01DX010 (sc), vehicle: suspension in saline.
[14] abbreviates: dose: 400.0 mg/kg/injection, schedule: Q01DX010 (sc), vehicle: suspension in saline.

SMILES strings stand for the structures. Several values for one entry are separate records, joined by “and”; a condition that tells them apart may be missing. Equal values may be shown once. Inconclusive results are not listed.

For `COC(=O)Nc1cccc(-c2nc3ccc(NC(=O)OC)cc3c(=O)n2-c2ccccc2)c1`, the T/C by setting is: under setting [1], 99 % of control; under setting [2], 160 % of control; under setting [3], 93 % of control; under setting [4], 84 % of control.
In the case of `Oc1c(Cl)cc(C(c2cc(Cl)c(O)c(Cl)c2)C(c2cc(Cl)c(O)c(Cl)c2)c2cc(Cl)c(O)c(Cl)c2)cc1Cl`, the T/C is 88 % of control under setting [5]; 66 % of control under setting [6]; 55 % of control under setting [7]; 66 % of control (dose: 2400.0 mg/kg/injection, schedule: Q04DX003 (sc), vehicle: Klucel (hydroxypropylcellulose) (HPC)).
With `O=C1NC(c2ccccc2)N=C2Oc3ccccc3C=C12` (stereo unspecified), the T/C reads like this: (dose: 12.5 mg/kg/injection, schedule: Q01DX010 (sc), vehicle: saline with Tween-80) 186 % of control; (dose: 25.0 mg/kg/injection, schedule: Q01DX010 (sc), vehicle: saline with Tween-80) 123 % of control; (dose: 50.0 mg/kg/injection, schedule: Q01DX010 (sc), vehicle: saline with Tween-80) 85 % of control; (dose: 100.0 mg/kg/injection, schedule: Q01DX010 (sc), vehicle: saline with Tween-80) 105 % of control; (dose: 200.0 mg/kg/injection, schedule: Q01DX010 (sc), vehicle: saline with Tween-80) 58 % of control.
On to `O=S(=O)(O)O`, for which the T/C by setting is: under setting [8], 70 % of control; under setting [5], 167 % of control; under setting [6], 73 % of control.
As to `CS(=O)(=O)OCCN(CCOS(C)(=O)=O)c1ccc(C=Nc2ccc(-c3csc(COc4ccccc4)n3)cc2)cc1`, the T/C was 52 % of control under setting [9], 70 % of control under setting [1] and 106 % of control under setting [3].
With `C=CCNc1ccc(C)cc1`, the T/C under setting [9] was 98 % of control; the T/C under setting [1] was 171 % of control; the T/C under setting [3] is 107 % of control; the T/C under setting [4] was 42 % of control; the T/C (dose: 400.0 mg/kg/injection, schedule: Q01DX010 (sc), vehicle: Klucel (hydroxypropylcellulose) (HPC)) was 72 % of control.
For the molecule `O=C(C/C(=N\C(=S)Nc1cc(C(F)(F)F)ccc1Cl)NO)N1CCCC1`, the T/C reads like this: under setting [10], 70 % of control; (dose: 600.0 mg/kg/injection, schedule: Q04DX003 (sc), vehicle: saline with Tween-80) 120 % of control; (dose: 1200.0 mg/kg/injection, schedule: Q04DX003 (sc), vehicle: saline with Tween-80) 104 % of control; (dose: 2400.0 mg/kg/injection, schedule: Q04DX003 (sc), vehicle: saline with Tween-80) 106 % of control.
On to `COc1ccc(C(=O)c2no[n+]([O-])c2C(=O)c2ccc(OC)cc2)cc1`, for which the T/C by setting is: (dose: 100.0 mg/kg/injection, schedule: Q04DX003 (sc), vehicle: saline with Tween-80) 84 % of control; (dose: 200.0 mg/kg/injection, schedule: Q04DX003 (sc), vehicle: saline with Tween-80) 91 % of control; (dose: 400.0 mg/kg/injection, schedule: Q04DX003 (sc), vehicle: saline with Tween-80) 99 % of control; (dose: 800.0 mg/kg/injection, schedule: Q04DX003 (sc), vehicle: saline with Tween-80) 109 % of control.
In the case of `C[Si](C)(C)n1nnn(-c2ccccc2)c1=O`, the T/C was 94 % of control (dose: 75.0 mg/kg/injection, schedule: Q04DX003 (sc), vehicle: saline with Tween-80); 105 % of control (dose: 150.0 mg/kg/injection, schedule: Q04DX003 (sc), vehicle: saline with Tween-80); 107 % of control under setting [10].
In the case of `Cc1ccccc1N(CC1CO1)CC1CO1` (stereo unspecified), the T/C reads like this: under setting [11], 33 % of control; under setting [12], 22 % of control; under setting [13], 104 % of control; under setting [14], 59 % of control.
As for `O=C(O)CSc1nc(-c2ccccc2)c(-c2ccccc2)n1-c1ccccn1`, the T/C (dose: 50.0 mg/kg/injection, schedule: Q01DX010 (sc), vehicle: water) was 94 % of control and the T/C (dose: 100.0 mg/kg/injection, schedule: Q01DX010 (sc), vehicle: water) was 60 % of control.
Take `Nc1nc(F)nc2c1ncn2C1OC(COP(=O)(O)O)C(O)C1O` (stereo unspecified): the T/C reads like this: (dose: 50.0 mg/kg/injection, schedule: Q01DX010 (sc), vehicle: saline) 55 % of control; under setting [11], 53 % of control and 70 % of control; (dose: 100.0 mg/kg/injection, schedule: Q01DX010 (sc), vehicle: saline) 20 % of control and 30 % of control; under setting [12], 56 % of control and 59 % of control; under setting [13], 6 % of control and 18 % of control; (dose: 400.0 mg/kg/injection, schedule: Q01DX010 (sc), vehicle: saline) -72 % of control. Moreover, the T/C under setting [14] was -62 % of control.
`COC1=C(NC(C)=O)C(=O)c2nc(-c3nc(C(=O)O)c(C)c(-c4ccc(OC)c(OC)c4O)c3N)ccc2C1=O`: the T/C (dose: 25.0 mg/kg/injection, schedule: Q04DX003 (sc), vehicle: Klucel (hydroxypropylcellulose) (HPC)) was 63 % of control; the T/C (dose: 50.0 mg/kg/injection, schedule: Q04DX003 (sc), vehicle: Klucel (hydroxypropylcellulose) (HPC)) was 55 % of control; the T/C (dose: 100.0 mg/kg/injection, schedule: Q04DX003 (sc), vehicle: Klucel (hydroxypropylcellulose) (HPC)) is 40 % of control.
For `OCC1OC(n2cnc3cncnc32)C(O)C1O` (stereo unspecified), the T/C reads like this: (dose: 12.5 mg/kg/injection, schedule: Q04DX003 (sc), vehicle: saline) 89 % of control; (dose: 25.0 mg/kg/injection, schedule: Q04DX003 (sc), vehicle: saline) 118 % of control; (dose: 50.0 mg/kg/injection, schedule: Q04DX003 (sc), vehicle: saline) 69 % of control.
Regarding `Cc1ccc2c(c1)C(=O)N(CC[P+](c1ccccc1)(c1ccccc1)c1ccccc1)C2=O`, the T/C is, setting by setting: under setting [1], 51 % of control; under setting [2], 37 % of control.
As to `COc1cc([C@@H]2c3cc4c(cc3[C@@H](OC3OC5CO[C@@H](c6cccs6)OC5C(O)C3O)[C@H]3COC(=O)[C@H]23)OCO4)cc(OC)c1O` (stereo partly specified), the T/C was 54 % of control (dose: 1.0 mg/kg/injection, schedule: Q01DX010 (sc), vehicle: saline); 78 % of control (dose: 2.0 mg/kg/injection, schedule: Q01DX010 (sc), vehicle: saline); 62 % of control and 78 % of control (dose: 4.0 mg/kg/injection, schedule: Q01DX010 (sc), vehicle: saline); 62 % of control and 78 % of control (dose: 8.0 mg/kg/injection, schedule: Q01DX010 (sc), vehicle: saline); 89 % of control (dose: 16.0 mg/kg/injection, schedule: Q01DX010 (sc), vehicle: saline); 39 % of control (dose: 32.0 mg/kg/injection, schedule: Q01DX010 (sc), vehicle: saline). Moreover, the T/C by setting is: (dose: 33.0 mg/kg/injection, schedule: Q01DX010 (sc), vehicle: saline) 109 % of control; (dose: 132.0 mg/kg/injection, schedule: Q01DX010 (sc), vehicle: saline) 56 % of control; (dose: 264.0 mg/kg/injection, schedule: Q01DX010 (sc), vehicle: saline) 88 % of control.
On to `[I][Hg][CH2]C1OCCOC1[CH2][Hg][I]` (stereo unspecified), for which the T/C is, setting by setting: under setting [8], 88 % of control; under setting [5], 74 % of control; under setting [6], 79 % of control; under setting [7], 64 % of control.
As for `CCC1=C[C@H]2CN(CCc3c([nH]c4ccccc34)[C@@](C(=O)OC)(c3cc4c(cc3OC)N(C)[C@H]3[C@@](O)(C(=O)NC)[C@H](OC(C)=O)[C@]5(CC)C=CCN6CC[C@]43[C@@H]65)C2)C1`, the T/C by setting is: (dose: 0.5 mg/kg/injection, schedule: Q04DX003 (sc), vehicle: water) 63 % of control; (dose: 1.0 mg/kg/injection, schedule: Q04DX003 (sc), vehicle: water) 67 % of control; (dose: 4.0 mg/kg/injection, schedule: Q04DX003 (sc), vehicle: water) 10 % of control.
`C=Cc1cnc([N+](=O)[O-])n1C`: the T/C runs as follows: (dose: 75.0 mg/kg/injection, schedule: Q04DX003 (sc), vehicle: Klucel (hydroxypropylcellulose) (HPC)) 106 % of control; under setting [8], 96 % of control; under setting [5], 98 % of control; under setting [6], 92 % of control.

(Values after PubChem BioAssay AID264 (DTP/NCI, 2004).)
